# Data reported in patent US8268813B2, “Zilpaterol enantiomer compositions and methods of making and using such compositions” (Intervet International B.V., priority 2006, dated 2012).
# Where “and” joins values, the source holds several entries; their conditions need not be identical. Equal entries are not always repeated. Where two headings read alike, the source gives them in different places.
# Legend:
# [1] = biological target: T1, human μ-opioid receptor (Homo sapiens, UniProt P35372); experiment: Radioligand binding assay, [3H]DAMGO, transfected HEK-293 cell membranes
# T1 construct: expressed in transfected cells; host or cells: HEK-293 cells; membrane homogenates
# T1 sequence (P35372 whole entry): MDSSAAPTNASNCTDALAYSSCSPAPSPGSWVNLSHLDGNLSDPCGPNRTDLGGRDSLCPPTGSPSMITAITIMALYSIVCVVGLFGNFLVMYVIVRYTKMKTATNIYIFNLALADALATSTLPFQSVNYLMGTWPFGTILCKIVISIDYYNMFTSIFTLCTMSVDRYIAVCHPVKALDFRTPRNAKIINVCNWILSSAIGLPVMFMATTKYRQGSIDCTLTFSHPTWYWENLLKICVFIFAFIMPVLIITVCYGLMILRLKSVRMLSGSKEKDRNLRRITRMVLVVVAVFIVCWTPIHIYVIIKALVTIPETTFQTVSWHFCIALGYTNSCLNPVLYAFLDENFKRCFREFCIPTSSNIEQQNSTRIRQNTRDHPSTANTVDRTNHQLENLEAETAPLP
# Method: This investigation was conducted using a radioligand binding assay.
# Non-specific binding was determined in the presence of 10 μM naloxone. Assay volume and format was 250 μl in 96-well plate. The test compound was added as a 10-fold concentrated solution, and the maximum tolerable DMSO concentration was 1%. Following incubation, the samples were filtered rapidly under vacuum through glass fiber filters (GF/B, Packard), pre-soaked with 0.3% PEI, and rinsed several times with ice-cold 50 mM Tris-HCl using a 96-sample cell harvester (Unifilter, Packard). The filters were dried, and counted for radioactivity in a scintillation counter (Topcount, Packard) using a scintillation cocktail (Microscint 0, Packard). The results were expressed as percent inhibition of the control radioligand specific binding.
# Specific ligand binding to the receptors is the difference between the total binding and the non-specific binding determined in the presence of an excess of unlabelled ligand. The results are expressed as a percent of control specific binding and as a percent inhibition of control specific binding obtained in the presence of the test compounds.
# The IC50 values (concentration causing a half-maximal inhibition of control specific binding) and Hill coefficients (nH) were determined by non-linear regression analysis of the competition curves using Hill equation curve fitting. […] Here, L is the concentration of radioligand in the assay, and KD is the affinity of the radioligand for the receptor.
# [2] = test system: μ-opioid receptor; experiment: Functional ex-vivo isolated organ bioassay (Guinea pig ileum), μ-opioid agonist response; settings: Applicants believe results may be faulty
# [3] = biological target: β2 adrenergic receptors in guinea pig trachea (Cavia porcellus, UniProt Q8K4Z4)
# Chain of β2 adrenergic receptors in guinea pig trachea (Q8K4Z4 whole entry): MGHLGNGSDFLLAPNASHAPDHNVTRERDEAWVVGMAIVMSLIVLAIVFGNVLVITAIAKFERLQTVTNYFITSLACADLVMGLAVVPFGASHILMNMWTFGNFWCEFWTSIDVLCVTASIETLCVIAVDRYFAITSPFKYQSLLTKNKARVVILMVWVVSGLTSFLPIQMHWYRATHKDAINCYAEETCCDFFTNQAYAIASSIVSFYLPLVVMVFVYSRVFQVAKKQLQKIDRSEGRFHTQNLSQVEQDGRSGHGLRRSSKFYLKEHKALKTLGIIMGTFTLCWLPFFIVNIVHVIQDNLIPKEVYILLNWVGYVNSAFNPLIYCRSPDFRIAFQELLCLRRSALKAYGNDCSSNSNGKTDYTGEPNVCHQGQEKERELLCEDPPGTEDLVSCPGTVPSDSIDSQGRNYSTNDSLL
# Method: In this experiment, β2 adrenergic receptor agonist activities were functionally determined using a quantitative ex-vivo guinea pig trachea bioassay. […] Following extensive washings and recovery to the initial state, the tissues were exposed to a single or several cumulative concentrations of the test compounds or the same agonist. Each concentration was left in contact with the tissues until a stable response was obtained. […] Assay volume and format was 20 ml organ baths. […] Following washings, the tissues were contracted again with carbachol, and then exposed to increasing concentrations of the test compound or the same agonist. […] If it occurred, a recovery of contraction by the test compound indicated an antagonist activity at the β2 receptors. The parameter measured was the maximal change in tension induced by each compound concentration. […] The agonist efficacy and potency of the test compounds were evaluated respectively in terms of Emax values (maximum response) and EC50 values (concentration producing a half-maximum response). These were determined from the concentration-response curves.
# [4] = Table 12, test concentration 1.0E−03 M
# [5] = Table 12, test concentration 1.0E−04 M
# [6] = Table 12, test concentration 1.0E−05 M
# [7] = Table 12, test concentration 1.0E−06 M
# [8] = Table 12, test concentration 3.0E−05 M
# [9] = Table 12, test concentration 3.0E−06 M
# [10] = Table 12, test concentration 3.0E−07 M
# [11] = Table 12, test concentration 3.0E−08 M
# [12] = calculated from the data in Table 12
# [13] = first assay, test concentration 1.0E−05 M
# [14] = repeat assay, test concentration 1.0E−03 M
# [15] = Table 12, test concentration 3.0E−04 M
SMILES,IC50 [1],Ki [1],binding to the μ-opioid receptor [1],"% of Control Specific Binding, Mean [1, 4]","% of Control Specific Binding, Run 1 [1, 4]","% of Control Specific Binding, Run 2 [1, 4]","% of Control Specific Binding, Mean [1, 5]","% of Control Specific Binding, Run 1 [1, 5]","% of Control Specific Binding, Run 2 [1, 5]","% of Control Specific Binding, Mean [1, 6]","% of Control Specific Binding, Run 1 [1, 6]","% of Control Specific Binding, Run 2 [1, 6]","% of Control Specific Binding, Mean [1, 7]","% of Control Specific Binding, Run 2 [1, 7]","% of Control Specific Binding, Mean [1, 8]","% of Control Specific Binding, Run 1 [1, 8]","% of Control Specific Binding, Run 2 [1, 8]","% of Control Specific Binding, Run 1 [1, 9]","% of Control Specific Binding, Run 2 [1, 9]","% of Control Specific Binding, Mean [1, 10]",further results
"CC(C)NC1CCn2c(=O)[nH]c3cccc(c32)C1O (racemic) [Racemic trans, 4,5,6,7-tetrahydro-7-hydroxy-6-(isopropylamino)imidazo[4,5,1-jk]-[1]benzazepin-2(1H)-one, reference compound]",31 µM,13 µM,greater binding,2.9%,2.4%,3.3%,23.7%,24.5%,22.9%,73.7%,76.7%,70.8%,90.0%,95.1%,47.5%,49.3%,45.6%,76.2%,87.4%,91.2%,"% of Control Specific Binding, Run 1 [1, 7]: 84.9%; % of Control Specific Binding, Mean [1, 9]: 81.8%; % of Control Specific Binding, Run 1 [1, 10]: 92.1%; % of Control Specific Binding, Mean [1, 11]: 98.3%; % of Control Specific Binding, Run 1 [1, 11]: 105.8%; % of Control Specific Binding, Run 2 [1, 11]: 90.9%; nH (Hill coefficient) [1, 12]: 0.9; % Inhibition of Control Specific Binding [1, 13]: 24%; % of Control Specific Binding, Mean [1, 13]: 76.2%; % of Control Specific Binding, Run 1 [1, 13]: 76.2%; % of Control Specific Binding, Run 2 [1, 13]: 76.2%; % Inhibition of Control Specific Binding [1, 14]: 98%; % of Control Specific Binding, Mean [1, 14]: 2.2%; % of Control Specific Binding, Run 1 [1, 14]: 1.6%; % of Control Specific Binding, Run 2 [1, 14]: 2.9%"
"CC(C)N[C@@H]1CCn2c(=O)[nH]c3cccc(c32)[C@H]1O (single isomer, unassigned) [6R,7R enantiomer, 6R,7R zilpaterol enantiomer]",320 µM,130 µM,binds weakly,24.1%,23.0%,25.2%,71.1%,71.3%,70.8%,81.3%,80.4%,82.1%,89.3%,87.5%,80.7%,73.9%,87.5%,92.1%,88.7%,93.6%,"% of Control Specific Binding, Mean [1, 15]: 43.5%; % of Control Specific Binding, Run 2 [1, 15]: 40.4%; % of Control Specific Binding, Run 1 [1, 10]: 94.8%; % of Control Specific Binding, Run 2 [1, 10]: 92.4%; nH (Hill coefficient) [1, 12]: 0.9; Ki ([1]; calculated from the data in Table 12, Cheng Prusoff): 130 µM; % Inhibition of Control Specific Binding [1, 13]: 7%; % of Control Specific Binding, Mean [1, 13]: 92.9%; % of Control Specific Binding, Run 1 [1, 13]: 90.8%; % of Control Specific Binding, Run 2 [1, 13]: 95.0%; % Inhibition of Control Specific Binding [1, 14]: 82%; % of Control Specific Binding, Mean [1, 14]: 17.9%; % of Control Specific Binding, Run 1 [1, 14]: 17.8%; % of Control Specific Binding, Run 2 [1, 14]: 18.0%; μ-opioid agonist response [2]: greater μ-opioid agonist response than both the 6S,7S zilpaterol enantiomer and racemic trans zilpaterol"
"CC(C)N[C@H]1CCn2c(=O)[nH]c3cccc(c32)[C@@H]1O [6S,7S enantiomer, 6S,7S zilpaterol enantiomer]",17 µM,7 µM,greater binding,1.2%,1.4%,0.9%,16.4%,15.9%,16.9%,60.2%,61.1%,59.2%,87.7%,84.6%,36.1%,34.9%,37.2%,81.0%,77.2%,95.3%,"% of Control Specific Binding, Run 1 [1, 7]: 90.9%; % of Control Specific Binding, Mean [1, 9]: 79.1%; % of Control Specific Binding, Run 1 [1, 10]: 97.5%; % of Control Specific Binding, Run 2 [1, 10]: 93.2%; % of Control Specific Binding, Mean [1, 11]: 95.8%; % of Control Specific Binding, Run 1 [1, 11]: 93.9%; % of Control Specific Binding, Run 2 [1, 11]: 97.7%; nH (Hill coefficient) [1, 12]: 0.9; % Inhibition of Control Specific Binding [1, 13]: 34%; % of Control Specific Binding, Mean [1, 13]: 66.3%; % of Control Specific Binding, Run 1 [1, 13]: 67.2%; % of Control Specific Binding, Run 2 [1, 13]: 65.4%; % Inhibition of Control Specific Binding [1, 14]: 100%; % of Control Specific Binding, Mean [1, 14]: 0.2%; % of Control Specific Binding, Run 1 [1, 14]: 0.1%; % of Control Specific Binding, Run 2 [1, 14]: 0.4%"
"C[C@@H](NC(=O)[C@@H](N)Cc1ccc(O)cc1)C(=O)NCC(=O)N(C)[C@@H](Cc1ccccc1)C(=O)NCCO [DAMGO, reference compound]",–,–,–,–,–,–,–,–,–,–,–,–,–,–,–,–,–,–,–,–,"nH (Hill coefficient) ([1]; reference compound, three independent experiments): 1.0 and 0.9"
"CC(C)(C)NCC(O)c1ccc(O)c(CO)c1 (centres unmarked) [Salbutamol, salbutamol]",–,–,–,–,–,–,–,–,–,–,–,–,–,–,–,–,–,–,–,–,"Percent of the Control Response to Salbutamol at 3.0E−07 M, Mean ([3]; Table 6, concentration 3.0E−08 M): 50%; Percent of the Control Response to Salbutamol at 3.0E−07 M, Mean ([3]; Table 6, concentration 3.0E−09 M): 8%; Percent of the Control Response to Salbutamol at 3.0E−07 M, Mean ([3]; Table 6, highest concentration 3.0E−07 M + ICI 118551 3.0E−07 M): 2%; Percent of the Control Response to Salbutamol at 3.0E−07 M, Mean ([3]; Table 7, concentration 3.0E−08 M): 53%; Percent of the Control Response to Salbutamol at 3.0E−07 M, Mean ([3]; Table 7, concentration 3.0E−09 M): 11%; Percent of the Control Response to Salbutamol at 3.0E−07 M, Mean ([3]; Table 7, highest concentration 3.0E−07 M + ICI 118551 3.0E−07 M): 5%"
